# Assay results from PubChem BioAssay (NCI).
#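 Tested at 5 concentrations; 48 h exposure; 96-well plates; endpoints linearly interpolated, else capped at highest concentration. Here, GI50 denotes the concentration required for 50% inhibition of growth. At the TGI there is no net growth.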
# What was measured:
# Assay in all cases: NCI anticancer screen, dose series, 48 h
# IGROV1 ovarian = system: IGROV1 ovarian
# KM12 colon = system: KM12 colon
# SR leukemia = system: SR leukemia
# SK-MEL-28 melanoma = system: SK-MEL-28 melanoma
# MCF7 breast = system: MCF7 breast
# OVCAR-5 ovarian = system: OVCAR-5 ovarian
# LOX IMVI melanoma = system: LOX IMVI melanoma
# A549 NSCLC = system: A549 NSCLC
# ACHN renal = system: ACHN renal
# SN12C renal = system: SN12C renal
# SK-MEL-5 melanoma = system: SK-MEL-5 melanoma
# MDA-MB-231 breast = system: MDA-MB-231 breast
# SW-620 colon = system: SW-620 colon
# PC-3 prostate = system: PC-3 prostate
# U251 CNS = system: U251 CNS
# SNB-19 CNS = system: SNB-19 CNS
# NCI-H226 lung = system: NCI-H226 lung
# RPMI-8226 leukemia = system: RPMI-8226 leukemia
# SF-295 CNS = system: SF-295 CNS
# OVCAR-8 ovarian = system: OVCAR-8 ovarian
# OVCAR-4 ovarian = system: OVCAR-4 ovarian
# UACC-257 melanoma = system: UACC-257 melanoma
# T-47D breast = system: T-47D breast
# UACC-62 melanoma = system: UACC-62 melanoma
# SK-OV-3 ovarian = system: SK-OV-3 ovarian
# HOP-92 NSCLC = system: HOP-92 NSCLC
# NCI/ADR-RES ovarian = system: NCI/ADR-RES ovarian
# NCI-H23 lung = system: NCI-H23 lung
# SNB-75 CNS = system: SNB-75 CNS
# HL-60(TB) leukemia = system: HL-60(TB) leukemia
# DU-145 prostate = system: DU-145 prostate
# HS 578T breast = system: HS 578T breast
# CAKI-1 renal = system: CAKI-1 renal
# HCT-15 colon = system: HCT-15 colon
# 786-0 renal = system: 786-0 renal
# CCRF-CEM leukemia = system: CCRF-CEM leukemia
# UO-31 renal = system: UO-31 renal
# TK-10 renal = system: TK-10 renal
# OVCAR-3 ovarian = system: OVCAR-3 ovarian
# COLO 205 colon = system: COLO 205 colon
# HOP-62 NSCLC = system: HOP-62 NSCLC
# HCT-116 colon = system: HCT-116 colon
# EKVX NSCLC = system: EKVX NSCLC
# NCI-H522 lung = system: NCI-H522 lung
# A498 renal = system: A498 renal
# BT-549 breast = system: BT-549 breast
# SF-539 CNS = system: SF-539 CNS
# HCC-2998 colon = system: HCC-2998 colon
# MDA-MB-435 = system: MDA-MB-435
# MALME-3M melanoma = system: MALME-3M melanoma
# HT29 colon = system: HT29 colon
# M14 melanoma = system: M14 melanoma
# K-562 leukemia = system: K-562 leukemia
# SF-268 CNS = system: SF-268 CNS
# NCI-H460 lung = system: NCI-H460 lung
# SK-MEL-2 melanoma = system: SK-MEL-2 melanoma
# RXF 393 renal = system: RXF 393 renal
smiles,measurement,setting,value
O=C(c1ccncc1)N1CCN(C2=NS(=O)(=O)c3ccccc3N2c2ccccc2)CC1,GI50,IGROV1 ovarian,25.1 µM
same,TGI,IGROV1 ovarian,> 100 µM
same,GI50,KM12 colon,29.2 µM
same,TGI,KM12 colon,> 100 µM
same,GI50,SR leukemia,0.177 µM
same,TGI,SR leukemia,2.42 µM
same,GI50,SK-MEL-28 melanoma,15.6 µM
same,TGI,SK-MEL-28 melanoma,38.7 µM
same,GI50,MCF7 breast,7.39 µM
same,TGI,MCF7 breast,> 100 µM
same,GI50,OVCAR-5 ovarian,33.4 µM
same,TGI,OVCAR-5 ovarian,> 100 µM
same,GI50,LOX IMVI melanoma,11.5 µM
same,TGI,LOX IMVI melanoma,> 100 µM
same,GI50,A549 NSCLC,20.6 µM
same,TGI,A549 NSCLC,> 100 µM
same,GI50,ACHN renal,11.1 µM
same,TGI,ACHN renal,53.6 µM
same,GI50,SN12C renal,7.55 µM
same,TGI,SN12C renal,> 100 µM
same,GI50,SK-MEL-5 melanoma,11.6 µM
same,TGI,SK-MEL-5 melanoma,24.1 µM
same,GI50,MDA-MB-231 breast,30.7 µM
same,TGI,MDA-MB-231 breast,75.2 µM
same,GI50,SW-620 colon,15.5 µM
same,TGI,SW-620 colon,57.1 µM
same,GI50,PC-3 prostate,22.2 µM
same,TGI,PC-3 prostate,> 100 µM
same,GI50,U251 CNS,8.32 µM
same,TGI,U251 CNS,> 100 µM
same,GI50,SNB-19 CNS,15 µM
same,TGI,SNB-19 CNS,44.9 µM
same,GI50,NCI-H226 lung,17.1 µM
same,TGI,NCI-H226 lung,42.4 µM
same,GI50,RPMI-8226 leukemia,35.5 µM
same,TGI,RPMI-8226 leukemia,96.2 µM
same,GI50,SF-295 CNS,9.87 µM
same,TGI,SF-295 CNS,> 100 µM
same,GI50,OVCAR-8 ovarian,27.7 µM
same,TGI,OVCAR-8 ovarian,> 100 µM
same,GI50,OVCAR-4 ovarian,30.6 µM
same,TGI,OVCAR-4 ovarian,> 100 µM
same,GI50,UACC-257 melanoma,21.7 µM
same,TGI,UACC-257 melanoma,63.8 µM
same,GI50,T-47D breast,10.9 µM
same,TGI,T-47D breast,57.5 µM
same,GI50,UACC-62 melanoma,7.99 µM
same,TGI,UACC-62 melanoma,21.6 µM
same,GI50,SK-OV-3 ovarian,13.4 µM
same,TGI,SK-OV-3 ovarian,> 100 µM
same,GI50,HOP-92 NSCLC,4.07 µM
same,TGI,HOP-92 NSCLC,21.4 µM
same,GI50,NCI/ADR-RES ovarian,> 100 µM
same,TGI,NCI/ADR-RES ovarian,> 100 µM
same,GI50,NCI-H23 lung,7.43 µM
same,TGI,NCI-H23 lung,41.6 µM
same,GI50,SNB-75 CNS,15.5 µM
same,TGI,SNB-75 CNS,53.2 µM
same,GI50,HL-60(TB) leukemia,17.1 µM
same,TGI,HL-60(TB) leukemia,> 100 µM
same,GI50,DU-145 prostate,7.77 µM
same,TGI,DU-145 prostate,> 100 µM
same,GI50,HS 578T breast,29.3 µM
same,TGI,HS 578T breast,81 µM
same,GI50,CAKI-1 renal,30.3 µM
same,TGI,CAKI-1 renal,88.5 µM
same,GI50,HCT-15 colon,> 100 µM
same,TGI,HCT-15 colon,> 100 µM
same,GI50,786-0 renal,7.37 µM
same,TGI,786-0 renal,37.2 µM
same,GI50,CCRF-CEM leukemia,1.95 µM
same,TGI,CCRF-CEM leukemia,> 100 µM
same,GI50,UO-31 renal,36.4 µM
same,TGI,UO-31 renal,> 100 µM
same,GI50,TK-10 renal,31.5 µM
same,TGI,TK-10 renal,77.1 µM
same,GI50,OVCAR-3 ovarian,32.1 µM
same,TGI,OVCAR-3 ovarian,> 100 µM
same,GI50,COLO 205 colon,30.3 µM
same,TGI,COLO 205 colon,> 100 µM
same,GI50,HOP-62 NSCLC,8.06 µM
same,TGI,HOP-62 NSCLC,32.3 µM
same,GI50,HCT-116 colon,14.5 µM
same,TGI,HCT-116 colon,33.3 µM
same,GI50,EKVX NSCLC,35 µM
same,TGI,EKVX NSCLC,> 100 µM
same,GI50,NCI-H522 lung,5.98 µM
same,TGI,NCI-H522 lung,67 µM
same,GI50,A498 renal,19.7 µM
same,TGI,A498 renal,36.9 µM
same,GI50,BT-549 breast,17.1 µM
same,TGI,BT-549 breast,52.1 µM
same,GI50,SF-539 CNS,3.85 µM
same,TGI,SF-539 CNS,22.8 µM
same,GI50,HCC-2998 colon,16.3 µM
same,TGI,HCC-2998 colon,37.6 µM
same,GI50,MDA-MB-435,18.9 µM
same,TGI,MDA-MB-435,40 µM
same,GI50,MALME-3M melanoma,23.6 µM
same,TGI,MALME-3M melanoma,51.8 µM
same,GI50,HT29 colon,19 µM
same,TGI,HT29 colon,57.8 µM
same,GI50,M14 melanoma,13.3 µM
same,TGI,M14 melanoma,> 100 µM
same,GI50,K-562 leukemia,7.79 µM
same,TGI,K-562 leukemia,> 100 µM
same,GI50,SF-268 CNS,8.37 µM
same,TGI,SF-268 CNS,> 100 µM
same,GI50,NCI-H460 lung,2.59 µM
same,TGI,NCI-H460 lung,> 100 µM
same,GI50,SK-MEL-2 melanoma,28 µM
same,TGI,SK-MEL-2 melanoma,65.7 µM
same,GI50,RXF 393 renal,18.5 µM
same,TGI,RXF 393 renal,40.5 µM
